Among the data in patent publication US20230086702A1, “SUBSTITUTED 2-AMINO-PYRAZOLYL-[1,2,4]TRIAZOLO[1,5A]PYRIDINE DERIVATIVES AND USE THEREOF” (The Johns Hopkins University, priority 2019, published 2023) are IC50 values, retold here.

In one assay the target is T1, LZK (Homo sapiens, UniProt O43283).
T1 construct: 10 nM LZK, catalytic domain, Carna Biosiences in assay buffer; purchased Carna Biosciences ('Carna Biosiences' [sic])
T1 sequence (O43283 168-409 limits assumed): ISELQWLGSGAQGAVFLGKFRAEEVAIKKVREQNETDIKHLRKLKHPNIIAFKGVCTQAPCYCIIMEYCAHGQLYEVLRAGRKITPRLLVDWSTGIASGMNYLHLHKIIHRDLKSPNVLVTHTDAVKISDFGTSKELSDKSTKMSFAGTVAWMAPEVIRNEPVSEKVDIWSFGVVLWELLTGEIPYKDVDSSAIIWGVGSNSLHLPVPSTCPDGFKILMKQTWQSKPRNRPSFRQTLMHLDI
Nature of the assay: LZK biochemical assay (TR-FRET, MKK7 phosphorylation). The procedure, abridged:
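Read-out is HTRF: Eu-labelled anti-phospho-MKK7 (T275/S277) and XL665 anti-His, incubated 16 h at 32 °C, with a drop in signal marking inhibition. Reaction beforehand: 10 nM LZK kinase domain, 15 nM His-MKK7, 15 µM ATP (final) for 90 min at room temperature, pH 7.5.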

The next assay concerns the target T2, DLK (Homo sapiens, UniProt Q12852).
T2 construct: 10 nM DLK, catalytic domain, Carna Biosiences; purchased Carna Biosciences ('Carna Biosiences' [sic])
T2 sequence (Q12852 125-366 limits assumed): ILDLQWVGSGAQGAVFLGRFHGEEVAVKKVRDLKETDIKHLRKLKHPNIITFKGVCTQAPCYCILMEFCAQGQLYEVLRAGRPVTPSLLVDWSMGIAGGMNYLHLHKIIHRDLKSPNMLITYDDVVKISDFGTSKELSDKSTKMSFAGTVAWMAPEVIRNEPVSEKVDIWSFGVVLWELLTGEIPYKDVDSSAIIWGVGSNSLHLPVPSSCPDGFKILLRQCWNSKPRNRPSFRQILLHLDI
Nature of the assay: DLK biochemical assay (TR-FRET, MKK7 phosphorylation). The procedure, abridged:
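TR-FRET read-out (665/Eu ratio) of MKK7 T275/S277 phosphorylation, with inhibition lowering the signal. Final conditions: 10 nM DLK catalytic domain, 15 nM MKK7, 60 μM ATP, 90 min at RT. Detection incubation 16 h at 37° C in 1536-well or 4° C in 384-well format.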
A general note: TR-FRET usually uses a lanthanide donor and a delayed reading to cut background.

One may read the IC50 as the concentration that inhibits the measured activity by half. For `CCC(c1ccc(C(F)(F)F)nc1)n1cc(-c2cc(-c3ccnc(C4(F)CC4)c3)n3nc(N)nc3c2)cn1` (single isomer, unassigned) [II-33, 5-[2-(1-Fluorocyclopropyl)pyridin-4-yl]-7-(1-{1-[6-(trifluoromethyl)pyridin-3-yl]propyl}-1H-pyrazol-4-yl)[1,2,4]triazolo[1,5-a]pyridin-2-amine], the values for the IC50 against LZK and on DLK were 7.6 nM and 17 nM, respectively.
Taken in the same sequence, the figures for `CC(C)C(c1ccc(C(F)(F)F)nc1)n1cc(-c2cc(-c3ccc(C4(O)CCC4)nc3)n3nc(N)nc3c2)cn1` (racemic) [II-80, 1-{5-[2-Amino-7-(1-{2-methyl-1-[6-(trifluoromethyl)pyridin-3-yl]propyl}-1H-pyrazol-4-yl)[1,2,4]triazolo[1,5-a]pyridin-5-yl]pyridin-2-yl}cyclobutan-1-ol] were 17 nM and 21 nM.
In the same order, the values of `CCC(c1ccc(C(F)(F)F)nc1)n1cc(-c2cc(-c3ccn(C)c(=O)c3)c3nc(N)nn3c2)cn1` (single isomer, unassigned) [II-170, 4-[2-Amino-6-(1-{1-[6-(trifluoromethyl)pyridin-3-yl]propyl}-1H-pyrazol-4-yl)[1,2,4]triazolo[1,5-a]pyridin-8-yl]-1-methylpyridin-2(1H)-one] are 220 nM and 73 nM.
As to `CC(C)C(c1ccc(C(F)(F)F)nc1)n1cc(-c2cc(-c3ccnc(C(F)(F)F)c3)n3nc(N)nc3c2)cn1` (racemic) [II-28, 7-(1-{2-Methyl-1-[6-(trifluoromethyl)pyridin-3-yl]propyl}-1H-pyrazol-4-yl)-5-[2-(trifluoromethyl)pyridin-4-yl][1,2,4]triazolo[1,5-a]pyridin-2-amine], the IC50 was found to be 27 nM on LZK and 28 nM against DLK.
In the same order, the values of `CCC(c1ccc(C(F)(F)F)nc1)n1cc(-c2cc(-c3cnn(CC(F)(F)F)c3)c3nc(N)nn3c2)cn1` (single isomer, unassigned) [II-113, 8-[1-(2,2,2-trifluoroethyl)-1H-pyrazol-4-yl]-6-(1-{1-[6-(trifluoromethyl)pyridin-3-yl]propyl}-1H-pyrazol-4-yl)[1,2,4]triazolo[1,5-a]pyridin-2-amine] are 59 nM and 23 nM.
`Nc1nc2c(-c3cnn(CC(F)(F)F)c3)cc(-c3cnn(C(c4ccc(C(F)(F)F)nc4)C4CCOCC4)c3)cn2n1` (single isomer, unassigned) [II-119, 6-(1-{Tetrahydro-2H-pyran-4-yl[6-(trifluoromethyl)pyridin-3-yl]methyl}-1H-pyrazol-4-yl)-8-[1-(2,2,2-trifluoroethyl)-1H-pyrazol-4-yl][1,2,4]triazolo[1,5-a]pyridin-2-amine]: the IC50 on LZK stood at 16 nM; against DLK, 4.7 nM.
Take `CCC(c1ccc(C(F)(F)F)cc1)n1cc(-c2cc(-c3cnn(C)c3)c3nc(N)nn3c2)cn1` (racemic) [II-99, 8-(1-Methyl-1H-pyrazol-4-yl)-6-(1-{1-[4-(trifluoromethyl)phenyl]propyl}-1H-pyrazol-4-yl)[1,2,4]triazolo[1,5-a]pyridin-2-amine]: the IC50 on LZK was found to be 150 nM; on DLK, 9.2 nM.
In the same order, the values of `CC(C)C(c1ccc(C(F)(F)F)nc1)n1cc(-c2cc(-c3ccnc(C(F)(F)F)c3)n3nc(N)nc3c2)cn1` (single isomer, unassigned) [II-29, 7-(1-{2-Methyl-1-[6-(trifluoromethyl)pyridin-3-yl]propyl}-1H-pyrazol-4-yl)-5-[2-(trifluoromethyl)pyridin-4-yl][1,2,4]triazolo[1,5-a]pyridin-2-amine] are 97 nM and 120 nM.
Taken in the same sequence, the figures for `CN(C)c1cccc(-c2cc(-c3cnn(C(c4ccc(C(F)(F)F)nc4)C4CCOCC4)c3)cn3nc(N)nc23)c1` (racemic) [II-22, 8-[3-(Dimethylamino)phenyl]-6-(1-{tetrahydro-2H-pyran-4-yl[6-(trifluoromethyl)pyridin-3-yl]methyl}-1H-pyrazol-4-yl)[1,2,4]triazolo[1,5-a]pyridin-2-amine] were 6.6 nM and 2.2 nM.
In the same order, the values of `CC(C)(O)c1cccc(-c2cc(-c3cnn(C(c4ccc(C(F)(F)F)nc4)C4CCOCC4)c3)cn3nc(N)nc23)c1` (racemic) [II-10, 2-{3-[2-Amino-6-(1-{tetrahydro-2H-pyran-4-yl[6-(trifluoromethyl)pyridin-3-yl]methyl}-1H-pyrazol-4-yl)[1,2,4]triazolo[1,5-a]pyridin-8-yl]phenyl}propan-2-ol] are 0.9 nM and 0.7 nM.
`Nc1nc2c(-c3cn(CC(F)(F)F)c(=O)cn3)cc(-c3cnn(C(c4ccc(C(F)(F)F)nc4)C4CCOCC4)c3)cn2n1` (single isomer, unassigned) [II-168, 5-[2-Amino-6-(1-{tetrahydro-2H-pyran-4-yl[6-(trifluoromethyl)pyridin-3-yl]methyl}-1H-pyrazol-4-yl)[1,2,4]triazolo[1,5-a]pyridin-8-yl]-1-(2,2,2-trifluoroethyl)pyrazin-2(1H)-one]: the IC50 was found to be 77 nM on LZK and 17 nM against DLK.
With `Nc1nc2c(-c3ccc(=O)n(C(F)F)c3)cc(-c3cnn(C(c4ccc(C(F)(F)F)nc4)C4CCOCC4)c3)cn2n1` (single isomer, unassigned) [II-155, 5-[2-Amino-6-(1-{tetrahydro-2H-pyran-4-yl[6-(trifluoromethyl)pyridin-3-yl]methyl}-1H-pyrazol-4-yl)[1,2,4]triazolo[1,5-a]pyridin-8-yl]-1-(difluoromethyl)pyridin-2(1H)-one], the figures for the IC50 against LZK and at DLK were 3.1 nM and 1 nM, respectively.
Taken in the same sequence, the figures for `CCC(c1ccc(C(F)(F)F)nc1)n1cc(-c2cc(-c3ccc(=O)n(CC(F)(F)F)c3)n3nc(N)nc3c2)cn1` (single isomer, unassigned) [II-189, 5-[2-Amino-7-(1-{1-[6-(trifluoromethyl)pyridin-3-yl]propyl}-1H-pyrazol-4-yl)[1,2,4]triazolo[1,5-a]pyridin-5-yl]-1-(2,2,2-trifluoroethyl)pyridin-2(1H)-one] were 32 nM and 15 nM.
Taken in the same sequence, the figures for `CN(C)c1cccc(-c2cc(-c3cnn(C(c4ccc(C(F)(F)F)nc4)C4CCOCC4)c3)cn3nc(N)nc23)c1` (single isomer, unassigned) [II-23, 8-[3-(Dimethylamino)phenyl]-6-(1-{tetrahydro-2H-pyran-4-yl[6-(trifluoromethyl)pyridin-3-yl]methyl}-1H-pyrazol-4-yl)[1,2,4]triazolo[1,5-a]pyridin-2-amine] were 9.2 nM and 4.5 nM.
Taken in the same sequence, the figures for `Nc1nc2cc(-c3cnn(C(c4ccc(C(F)(F)F)nc4)C4CCOCC4)c3)cc(-c3ccc(=O)n(CC(F)F)c3)n2n1` (single isomer, unassigned) [II-186, 5-[2-Amino-7-(1-{tetrahydro-2H-pyran-4-yl[6-(trifluoromethyl)pyridin-3-yl]methyl}-1H-pyrazol-4-yl)[1,2,4]triazolo[1,5-a]pyridin-5-yl]-1-(2,2-difluoroethyl)pyridin-2(1H)-one] were 4.5 nM and 4.1 nM.
As to `Nc1nc2cc(-c3cnn(C(c4ccc(C(F)F)nc4)C4CCOCC4)c3)cc(-c3ccc(C(F)(F)F)nc3)n2n1` (single isomer, unassigned) [II-77, 7-(1-{[6-(Difluoromethyl)pyridin-3-yl](tetrahydro-2H-pyran-4-yl)methyl}-1H-pyrazol-4-yl)-5-[6-(trifluoromethyl)pyridin-3-yl][1,2,4]triazolo[1,5-a]pyridin-2-amine], the concentration for half-maximal inhibition (IC50) came out at 61 nM at LZK and 160 nM at DLK.
In the same order, the values of `Nc1nc2c(-c3cnn(CC4CC4(F)F)c3)cc(-c3cnn(Cc4ccccc4)c3)cn2n1` (racemic) [II-89, 6-(1-Benzyl-1H-pyrazol-4-yl)-8-{1-[(2,2-difluorocyclopropyl)methyl]-1H-pyrazol-4-yl}[1,2,4]triazolo[1,5-a]pyridin-2-amine] are 39 nM and 12 nM.
Taken in the same sequence, the figures for `Nc1nc2cc(-c3cnn(C(c4ccc(C(F)(F)F)nc4)C4CCOCC4)c3)cc(-c3ccc(=O)n(CC(F)F)c3)n2n1` (single isomer, unassigned) [II-187, 5-[2-Amino-7-(1-{tetrahydro-2H-pyran-4-yl[6-(trifluoromethyl)pyridin-3-yl]methyl}-1H-pyrazol-4-yl)[1,2,4]triazolo[1,5-a]pyridin-5-yl]-1-(2,2-difluoroethyl)pyridin-2(1H)-one] were 0.5 nM and 0.2 nM.
